Key:
[1] = biological target: T1, HIS-KRAS (G12C, aa 2-185) (Homo sapiens, UniProt P01116, G12C); assay: KRas G12C binding assay (TR-FRET, SOS1-mediated BODIPY FL GTP nucleotide exchange); details: GDP-loaded HIS-KRAS (G12C) 3 nM, 1 hour pre-incubation with compound, 4 hours with SOS1 ExD and BODIPY FL GTP at 25° C
T1 construct: HIS-KRAS (G12C, aa 2-185, Sino biological); purchased Sino biological
Method: Biological Example 1: KRas G12C Binding Assay
(§1) HIS-KRAS (G12C, aa 2-185, Sino biological) was diluted to 5 uM in EDTA buffer (20 mM HEPES, pH 7.4, 50 mM NaCl, 10 mM EDTA, 0.01% (v/v) Tween-20) and incubated for 30 min at 25° C. The EDTA pretreated HIS-KRAS (G12C) was diluted to 12 nM in assay buffer (25 mM HEPES, pH 7.4, 120 mM NaCl, 5 mM MgCl 2, 1 mM DTT, 0.01% (v/v) Tween 20, 0.1% (w/v) BSA) containing 120 nM GDP (Sigma) and MAb Anti 6HIS—Tb cryptate Gold (Cisbio) and incubated for 1 hour at 25° C. to prepare GDP-loaded HIS-KRAS (G12C). The GDP-loaded HIS-KRAS (G12C) was pre-incubation with diluted compounds in a 384-well plate (Greiner) for 1 hour, then purified SOS1 ExD (Flag tag, aa 564-1049) and BODIPY™ FL GTP (Invitrogen) were added to the assay wells (Final concentration: 3 nM HIS-KRAS (G12C), 2 uM SOS1 ExD, 80 nM BODIPY™ FL GTP, 21 ng/mL MAb Anti 6HIS—Tb cryptate Gold) and incubated for 4 hours at 25° C. TR-FRET signals were then read on Tecan Spark multimode microplate reader. The parameters were F486: Excitation 340 (35) nm, Emission 486 (10) nm, Lag time 100 μs, Integration time 200 μs; F515: Excitation 340 (35) nm, Emission 515 (10) nm, Lag time 100 μs, Integration time 200 μs. TR-FRET ratios for each individual wells were calculated by equation: TR-FRET ratio=(Signal F515/Signal F486)*10000. Then the data were analyzed using a 4-parameter logistic model to calculate IC50 values. The following table lists the IC50 values of certain compounds of the invention.

HIS-KRAS (G12V) = HIS-KRAS (G12V) (Homo sapiens, UniProt P01116, G12V); assay: KRas G12V binding assay (TR-FRET, SOS1-mediated BODIPY FL GTP nucleotide exchange); details: GDP-loaded HIS-KRAS (G12V) 3 nM, 1 hour pre-incubation with compound, 4 hours with SOS1 ExD and BODIPY FL GTP at 25° C
Method: Biological Example 3: KRas G12V Binding Assay
as §1, with “(G12V)” for “(G12C, aa 2-185, Sino biological)”, “(G12V)” for “(G12C)”, “(G12V).” for “(G12C).”, “(G12V),” for “(G12C),”

[2] = biological target: T2, GDP-loaded, histidine-tagged, truncated (1-169) KRAS G12C (Homo sapiens, UniProt P01116, G12C); assay: KRas G12C in vitro covalent MS-based assay; format: binding; details: KRAS protein 2 uM, denaturing SEC-MS intact mass
T2 construct: histidine-tagged, truncated (1-169) KRAS proteins; His
Method: Biological Example 2: KRas G12C In Vitro Covalent MS-Based Assay
GDP-loaded, histidine-tagged, truncated (1-169) KRAS proteins (G12C, WT, G13D, as indicated) at 2 uM final concentration were incubated with the test compounds at the doses and time points indicated in a buffer containing 20 mmol/L HEPES pH 7.5, 150 mmol/L NaCl, 1 mmol/L MgCl 2, and 1 mmol/L DTT. Reactions were quenched by adding formic acid to 0.2%. Samples were buffer exchanged and analyzed by denaturing SEC-MS (Orbitrap Eclipse), Mobile phase: 30% ACN, 0.1% formic acid, 0.02% TFA. Raw data were analyzed by charge state deconvolution with BioPharma Finder 4.1 Intact Mass, ReSpect and Sliding Window algorithms. The masses were calculated via software for KRAS_G12C theoretical sequence and experimental compounds.

T1 sequence (P01116 2-185 isoform P01116-2 G12C): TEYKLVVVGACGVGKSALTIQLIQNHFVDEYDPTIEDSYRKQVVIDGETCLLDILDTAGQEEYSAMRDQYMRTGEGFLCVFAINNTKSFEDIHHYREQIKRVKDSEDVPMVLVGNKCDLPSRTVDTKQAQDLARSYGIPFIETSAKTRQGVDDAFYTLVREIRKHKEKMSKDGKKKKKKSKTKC
Sequence of HIS-KRAS (G12V) (P01116 1-188 isoform P01116-2 G12V): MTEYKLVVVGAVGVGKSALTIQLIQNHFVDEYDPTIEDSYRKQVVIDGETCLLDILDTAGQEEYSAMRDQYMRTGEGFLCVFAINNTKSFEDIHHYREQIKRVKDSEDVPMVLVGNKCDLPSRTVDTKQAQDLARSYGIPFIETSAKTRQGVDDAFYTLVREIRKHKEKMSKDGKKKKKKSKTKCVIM
T2 sequence (P01116 1-169 isoform P01116-2 G12C): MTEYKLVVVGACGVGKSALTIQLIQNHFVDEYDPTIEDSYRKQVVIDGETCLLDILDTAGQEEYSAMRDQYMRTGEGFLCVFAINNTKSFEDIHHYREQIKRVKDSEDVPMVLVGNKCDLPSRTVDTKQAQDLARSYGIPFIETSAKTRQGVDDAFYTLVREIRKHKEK

Compound	IC50 [1]	IC50 (HIS-KRAS (G12V))	Binding Model [2]
C#Cc1cccc2cc(O)cc(-c3ncc4c(N5CC6CCC(C5)N6C(=O)C=C)nc(OC[C@@]56CCCN5C[C@H](F)C6)nc4c3F)c12 [Example 1, 1-[3-(2-{[(2R,7aS)-2-fluoro-hexahydropyrrolizin-7a-yl]methoxy}-7-(8-ethynyl-3-hydroxynaphthalen-1-yl)-8-fluoropyrido[4,3-d]pyrimidin-4-yl)-3,8-diazabicyclo[3.2.1]octan-8-yl]prop-2-en-1-one]	10.6 nM	4.37 nM	
C#Cc1c(F)ccc2cc(O)cc(-c3ncc4c(N(C)C[C@@H]5CCCN5C(=O)C=C)nc(OC[C@@]56CCCN5C[C@H](F)C6)nc4c3F)c12 [Example 2, 1-[(2S)-2-{[(2-{[(2R,7aS)-2-fluoro-hexahydropyrrolizin-7a-yl]methoxy}-7-(8-ethynyl-7-fluoro-3-hydroxynaphthalen-1-yl)-8-fluoropyrido[4,3-d]pyrimidin-4-yl)(methyl)amino]methyl}pyrrolidin-1-yl]prop-2-en-1-one]	0.41 nM	0.54 nM	Covalent binding
C#Cc1c(F)ccc2cccc(-c3ncc4c(N5C[C@H]6CC[C@@H](C5)N6C(=O)C=C)nc(OCC56CCCN5CCC6)nc4c3F)c12 [Example 3, 1-((1R,5S)-3-(7-(8-ethynyl-7-fluoronaphthalen-1-yl)-8-fluoro-2-((tetrahydro-1H-pyrrolizin-7a(5H)-yl)methoxy)pyrido[4,3-d]pyrimidin-4-yl)-3,8-diazabicyclo[3.2.1]octan-8-yl)prop-2-en-1-one]	3.19 nM	39.1 nM	
C#Cc1c(F)ccc2cc(O)cc(-c3ncc4c(N5C[C@H]6CC[C@@H](C5)N6C(=O)C=C)nc(N5CC(N(C)C)C5)nc4c3F)c12 [Example 4, 1-((1R,5S)-3-(2-(3-(dimethylamino)azetidin-1-yl)-7-(8-ethynyl-7-fluoro-3-hydroxynaphthalen-1-yl)-8-fluoropyrido[4,3-d]pyrimidin-4-yl)-3,8-diazabicyclo[3.2.1]octan-8-yl)prop-2-en-1-one]	3.34 nM	95.8 nM	
C#Cc1c(F)ccc2cc(O)cc(-c3ncc4c(N5C[C@H]6CC[C@@H](C5)N6C(=O)C=C)nc(OCC56CCCN5CCC6)nc4c3F)c12 [Example 5, 1-((1R,5S)-3-(7-(8-ethynyl-7-fluoro-3-hydroxynaphthalen-1-yl)-8-fluoro-2-((tetrahydro-1H-pyrrolizin-7a(5H)-yl)methoxy)pyrido[4,3-d]pyrimidin-4-yl)-3,8-diazabicyclo[3.2.1]octan-8-yl)prop-2-en-1-one]	0.37 nM	0.19 nM	Covalent binding
C#Cc1c(F)ccc2cc(O)cc(-c3ncc4c(N5C[C@H]6CC[C@@H](C5)N6C(=O)C=C)nc(OC[C@@H]5CCCN5C)nc4c3F)c12 [Example 6, 1-((1R,5S)-3-(7-(8-ethynyl-7-fluoro-3-hydroxynaphthalen-1-yl)-8-fluoro-2-(((S)-1-methylpyrrolidin-2-yl)methoxy)pyrido[4,3-d]pyrimidin-4-yl)-3,8-diazabicyclo[3.2.1]octan-8-yl)prop-2-en-1-one]	0.36 nM	0.38 nM	
C#Cc1c(F)ccc2cc(O)cc(-c3ncc4c(N5C[C@H]6CC[C@@H](C5)N6C(=O)C=C)nc(OC[C@@H]5CCCCN5C)nc4c3F)c12 [Example 7, 1-((1R,5S)-3-(7-(8-ethynyl-7-fluoro-3-hydroxynaphthalen-1-yl)-8-fluoro-2-(((S)-1-methylpiperidin-2-yl)methoxy)pyrido[4,3-d]pyrimidin-4-yl)-3,8-diazabicyclo[3.2.1]octan-8-yl)prop-2-en-1-one]	0.41 nM	5.87 nM	
C#Cc1c(F)ccc2cc(O)cc(-c3ncc4c(NCC5(N(C)C(=O)C=C)CCC5)nc(OCC56CCCN5CCC6)nc4c3F)c12 [Example 10, N-(1-(((7-(8-ethynyl-7-fluoro-3-hydroxynaphthalen-1-yl)-8-fluoro-2-((tetrahydro-1H-pyrrolizin-7a(5H)-yl)methoxy)pyrido[4,3-d]pyrimidin-4-yl)amino)methyl)cyclobutyl)-N-methylacrylamide]	2.7 nM	5.1 nM	
C#Cc1c(F)ccc2cc(O)cc(-c3ncc4c(NCC5(N(C)C(=O)C=C)CCCC5)nc(OCC56CCCN5CCC6)nc4c3F)c12 [Example 11, N-(1-(((7-(8-ethynyl-7-fluoro-3-hydroxynaphthalen-1-yl)-8-fluoro-2-((tetrahydro-1H-pyrrolizin-7a(5H)-yl)methoxy)pyrido[4,3-d]pyrimidin-4-yl)amino)methyl)cyclopentyl)-N-methylacrylamide]	1.6 nM	3.5 nM	
C#Cc1c(F)ccc2cc(O)cc(-c3ncc4c(N5C[C@H]6CC[C@@H](C5)N6C(=O)C=C)nc(OC[C@]5(C)CCCN5C)nc4c3F)c12 [Example 12, 1-((1R,5S)-3-(2-(((S)-1,2-dimethylpyrrolidin-2-yl)methoxy)-7-(8-ethynyl-7-fluoro-3-hydroxynaphthalen-1-yl)-8-fluoropyrido[4,3-d]pyrimidin-4-yl)-3,8-diazabicyclo[3.2.1]octan-8-yl)prop-2-en-1-one]	1.5 nM	49.7 nM	
C#Cc1c(F)ccc2cc(O)cc(-c3ncc4c(N5C[C@H]6CC[C@@H](C5)N6C(=O)C=C)nc(OC[C@]5(C)C[C@@H](F)CN5C)nc4c3F)c12 [Example 13, 1-((1R,5S)-3-(7-(8-ethynyl-7-fluoro-3-hydroxynaphthalen-1-yl)-8-fluoro-2-(((2S,4R)-4-fluoro-1,2-dimethylpyrrolidin-2-yl)methoxy)pyrido[4,3-d]pyrimidin-4-yl)-3,8-diazabicyclo[3.2.1]octan-8-yl)prop-2-en-1-one]	0.96 nM	13.7 nM	
C#Cc1c(F)ccc2cc(O)cc(-c3ncc4c(N5C[C@H]6CC[C@@H](C5)N6C(=O)C=C)nc(OC[C@@]5(C)C[C@@H](F)CN5C)nc4c3F)c12 [Example 14, 1-((1R,5S)-3-(7-(8-ethynyl-7-fluoro-3-hydroxynaphthalen-1-yl)-8-fluoro-2-(((2R,4R)-4-fluoro-1,2-dimethylpyrrolidin-2-yl)methoxy)pyrido[4,3-d]pyrimidin-4-yl)-3,8-diazabicyclo[3.2.1]octan-8-yl)prop-2-en-1-one]	0.99 nM		
